We go through 1 substance from patent US20250134122A1, “PEDIATRIC NUTRITIONAL COMPOSITIONS AND METHODS FOR INFANTS DELIVERED BY C-SECTION” (Mead Johnson Nutrition Company, priority 2018, published 2025).

The test system of this assay is mouse fecal microbiota. The experiment in a line: Gut microbiota community structure (16S rRNA V4-V5 sequencing, β-diversity, PCoA) after 3 weeks on experimental diets. In kind it is in vivo. As to conditions: adult male C57bl/6 mice, 3 weeks of feeding; versus Control-fed or SAL-fed mice; ADONIS p<0.05. The source says: Adult male C57bl/6 strains of Mus musculus (Charles Rivers Laboratories, Wilmington, MA) between 6-8 weeks of age were used in the study. After being received from the vendor, mice were placed on one of three experimental diets. Animals were given ad libitum access to water, and maintained on the experimental diets for 3 weeks. Experimental diets were: (1) Control diet (AlN-93G mouse chow); (2) AlN-93G supplemented with galactooligosaccharides (GOS 21.2 g/kg)+polydextrose (PDX 6.6 g/kg)+sialyllactose (SAL 2 g/kg); (3) AlN-93G supplemented with SAL.
Colon contents were removed via direct excision for metabolomic analysis, and the colon tissue was briefly washed in a PBS bath so as to not disturb the mucous layer. DNA was extracted from the medial section of the colon (˜10 mg) using a Qiagen DNA Mini Kit, following manufacturer's instructions with slight modifications. Briefly, tissues were incubated for 45 min at 37° C. in lysozyme buffer (20 mg/ml lysozyme, 20 mM TrisHCL, 2 mM EDTA, 1.2% Triton-x, pH 8.0), then bead-beat for 150 sec with 0.7 mm zirconia beads. Samples were incubated at 56° C. for 2 hr with Buffer ATL and Proteinase K, then incubated at 56° C. for 30 min and 95° C. for 10 min upon addition of Buffer AL. […] DNA was quantified with the Qubit 2.0 Fluorometer (Life Technologies, Carlsbad, CA) using the dsDNA Broad Range Assay Kit. […]

sialyllactose [SAL]: the “mouse fecal microbiota community structure (β-diversity; Unweighted UniFrac), PCoA clustering” value was “not achieved”.
